From patent US8212038B2, “Methods and compositions for controlling ectoparasites” (HatchTech Pty Ltd., priority 2003, dated 2012)
“Also recorded” adds a separate entry of the source. Square brackets hold non-standard residues; d marks the D form. Peptide text beside a SMILES is read from it. * marks the point of attachment. Sta = CC(C)C[C@H](N)[C@@H](O)CC(=O)O; Isovaleryl = CC(C)CC(=O)*

Key:
B. ovis eggs = experiment: Egg hatching in Bovicola ovis; type: in vivo; conditions: 10 mM; for inhibition of egg hatching (in words): 10 or 1 minute exposure
Protocol: B. ovis eggs were collected from the wool of sheep that were infested with this parasite. The eggs were collected using forceps and with the aid of a dissecting microscope and placed in 24 well tissue culture plates in duplicate lots of 10 eggs per replicate. The eggs were then exposed to either methanol alone (control) or the test compounds for either 10 minutes or 1 minute before being removed from the wells and placed into individual glass vials containing a diet at the base of the tube. The tubes were placed in plastic containers containing a salt solution (to keep humidity constant at 68%) and the containers maintained at a temperature 32° C. The eggs were monitored for hatching over the following 12 days and % hatch inhibition determined in comparison to the controls.

[1] = test system: Helicoverpa armigera eggs (Tatura×Toowoomba strains); experiment: Egg hatch of Helicoverpa armigera after exposure to inhibitor; conditions: for % Inhibition of egg hatch relative to the control / Number hatched / Number unhatched / % Inhibition of egg hatch relative to control: day 6 post laying
Protocol: Several hundred Helicoverpa armigera eggs (Tatura×Toowoomba strains) were collected, that had been laid on fine mesh cloth over a 24 hour period.
Batches of Helicoverpa eggs were exposed to a specific inhibitor solution for between 2-10 seconds the excess solution drained by blotting with dry tissue paper. The egg masses were then placed in a humid box at 25 degrees until egg hatch. Control eggs were exposed to absolute methanol as described above.

[2] = test system: Plutella xylostella eggs (Waite strain); experiment: Egg hatch of Plutella xylostella after dipping in inhibitor
Protocol: The egg masses were then placed in a humid box at 25 degrees until egg hatch. Control eggs were exposed to absolute methanol as described above. At day 6 post laying the eggs were assessed from the different treatments and the percentage of egg hatch determined relative to the control as shown in Table 9.
Batches of Plutella eggs that were laid on either fine cloth or parafilm were dipped in a specific inhibitor solution for between 2-10 seconds, the excess solution was drained by blotting with dry tissue paper. The egg masses were then placed in a humid box at 25 degrees until egg hatch. Control eggs were exposed to absolute methanol as described above or not treated.
The egg masses were then placed in a humid box at 25 degrees until egg hatch. Control eggs were exposed to absolute ethanol as described above. On day 6 post laying the eggs were assessed from the different treatments and the percentage of egg hatch determined relative to the control.

[3] = test system: Plutella xylostella eggs (Waite strain); experiment: Reversal of ovicidal effect by FeSO4 on Plutella xylostella eggs; type: in vivo; conditions: for effect of added Fe (FeSO4) on the ovicidal effect (in words): 10 mM inhibitor, then FeSO4 10, 5 or 1 mM
Protocol: (§1) Within 24 hours of collection the following experimental design was chosen. Batches of eggs were exposed to 10 mM 6,69-dimethyl-2,29-dipyridyl for 2 seconds while additional batches of eggs were exposed to the solvent only (Methanol) for 2 seconds. All batches of eggs were allowed to air dry for 20 minutes at room temperature. The eggs were then given a 2 second exposure to FeSO4 at either 10, 5 or 1 mM, air dried and put in the incubator at 24° C. and allowed to hatch over the next 6 days. In addition, a positive control of 10 mM 6,69-dimethyl-2,29-dipyridyl was set up in which eggs were exposed to this compound for 2 seconds, air dried and placed in the incubator.
as §1, with “10 mM 5,59-dimethyl-2,29-dipyridyl for 2” for “10 mM 6,69-dimethyl-2,29-dipyridyl for 2”, “FeSO4 at 10, 5” for “FeSO4 at either 10, 5”, “put in an incubator at” for “put in the incubator at”, “of 10 mM, 5,59-dimethyl-2,29-dipyridyl was set” for “of 10 mM 6,69-dimethyl-2,29-dipyridyl was set”

lice eggs = experiment: Time course in vitro lice egg hatching assay; type: in vivo, Pediculus humanus humanus
[4] = test system: proteases in the egg shell washings (ESW) of lice eggs; experiment: Gelatine substrate SDS-PAGE of egg shell washings treated with protease inhibitors; type: biochemical, Pediculus humanus humanus; conditions: 37° C., 3 hrs
Protocol: Within 12 hours of hatching 50 body lice eggs (Pediculus humanus humanus) were removed from the hair and placed in a 1 ml eppendorf tube. 20 μL of distilled water was added to the unhatched eggs and the preparation incubated for 30 minutes at 32° C. The 20 μL was recovered, freeze dried and stored at −70° C. A number of other samples were also collected as described. Hair samples from which unhatched lice eggs had been removed were also collected and incubated as described above. In addition, a sample of unhatched eggs and a sample of hair from which lice eggs had been removed were collected 7 days post laying (within 24 hrs of egg hatching). Both samples were washed in 10 mls of a 1% solution of sodium hypochlorite for 1 minute followed by a 5×1 minute washes in 25 mls in distilled water to remove the hypochlorite. These samples were then incubated in […] of distilled water as described above. In addition, a group of 25 lice eggs that were within 24 hours of hatching, were pretreated with 1% sodium hypochlorite, washed as described above and left to hatch. Within 1-2 hours after hatching the empty egg shells were incubated in 20 μL of distilled water as described above, the washings collected from the hatched egg shells and stored at −70° C. All of the extract samples were then freeze-dried overnight. The freeze-dried samples were then resuspended in […] of non-reducing SDS sample buffer, centrifuged at 10,000 g for 2 minutes and the entire 15 μL loaded on to 10% gelatine substrate SDS-PAGE gels. Gels were run at 4° C. for 10 minutes at 10 mA followed by a further 25 minutes at 15 mA per gel. They were then incubated for 2×20 minutes in a 2.5% Triton-X 100 solution followed by a three hour incubation in 0.1M Tris/HCl containing 1 mM CaCl2 pH 8.0. Activity was detected as clear areas on the gel the result of protease activity degrading the gelatine within the gel.
10% SDS-PAGE gelatine substrate gels were loaded with freeze dried egg shell washings from 100 lice eggs that had been resuspended in 50 μl of non-reducing sample buffer with samples run at 10 μl per lane. Gels were run at 4° C. for 10 minutes at 10 mA per gel followed by a further 25 minutes at 15 mA per gel. Gels were then cut into strips and each strip incubated for 2×20 minutes in a 2.5% Triton-X 100 solution containing a specific inhibitor. The inhibitors used were the serine protease inhibitor PMSF (5 mM), the metalloprotease inhibitor 1,10-phenanthroline (10 mM), the aspartic protease Pepstatin (5 μM) and the cysteine inhibitor E-64 (10 μM). The gel strips were then incubated in 0.1M Tris/HCl containing 1 mM CaCl2 pH 8 containing the different protease inhibitors for 3 hrs at 37° C., before being stained in Coomassie blue and destained as previously described.

[5] = Example 13, eggs laid on cloth, 1 mM
[6] = Example 13, eggs laid on cloth, 10 mM
[7] = Example 13, eggs laid on parafilm, 1 mM
[8] = Example 13, eggs laid on parafilm, 10 mM
[9] = 10 mM followed by 2 second exposure to 1 mM FeSO4
[10] = 10 mM followed by 2 second exposure to 5 mM FeSO4
[11] = 10 mM followed by 2 second exposure to 10 mM FeSO4
[12] = 10 mM followed by 2 second exposure to MEOH
[13] = 10 mM, 2 seconds, (+ve) control, no second exposure
[14] = 10 and 1 mM, listed as 6,6′ dimethyl-2,2′ dipyridyl
[15] = Example 12, 0.001 mM, day 6 post laying
[16] = Example 12, 0.01 mM, day 6 post laying
[17] = Example 12, 0.1 mM, day 6 post laying
[18] = Example 12, 1 mM, day 6 post laying
[19] = Example 12, 10 mM, day 6 post laying
[20] = Example 13, eggs laid on cloth, 0.01 mM
[21] = Example 13, eggs laid on cloth, 0.1 mM
[22] = Example 13, eggs laid on parafilm, 0.01 mM
[23] = Example 13, eggs laid on parafilm, 0.1 mM
[24] = per replicate, […], concentration not given

Cc1ccc(-c2ccc(C)cn2)nc1 [5,5′-dimethyl-2,2′-dipyridyl]
inhibition of egg hatching (in words) (B. ovis eggs): completely inhibited
% Inhibition (B. ovis eggs; 1 minute exposure): 100%
% Inhibition (B. ovis eggs; 10 minute exposure): 100%
inhibition of egg hatching of Helicoverpa armigera (in words) ([1]; 10 mM): significant inhibition of egg hatching
% Inhibition of egg hatch relative to the control ([1]; Example 15, 10 mM): 100%
Number hatched ([1]; Example 15, 10 mM): 0
Number unhatched ([1]; Example 15, 10 mM): 42
inhibition of egg hatching in Plutella xylostella (in words) ([2]; 10 and 1 mM): significantly inhibit egg hatching
% Inhibition of egg hatch relative to controls [2, 5]: 78%
Number hatched [2, 5]: 5
Number unhatched [2, 5]: 22
% Inhibition of egg hatch relative to controls [2, 6]: 100%
Number hatched [2, 6]: 0
Number unhatched [2, 6]: 21
% Inhibition of egg hatch relative to controls [2, 7]: 88%
Number hatched [2, 7]: 18
% Inhibition of egg hatch relative to controls [2, 8]: 100%
Number hatched [2, 8]: 0
% Inhibition [3, 9]: 0%
Number hatched [3, 9]: 39
Number unhatched [3, 9]: 0
% Inhibition [3, 10]: 0%
Number hatched [3, 10]: 25
Number unhatched [3, 10]: 0
% Inhibition [3, 11]: 8%
Number hatched [3, 11]: 23
Number unhatched [3, 11]: 2
% Inhibition [3, 12]: 55%
Number hatched [3, 12]: 16
Number unhatched [3, 12]: 19
effect of added Fe (FeSO4) on the ovicidal effect (in words) [3]: able to reverse the effects
% Inhibition [3, 13]: 100%
Number hatched [3, 13]: 0
Number unhatched [3, 13]: 38

Cc1cccc(-c2cccc(C)n2)n1 [6,6′-dimethyl-2,2′-dipyridyl]
inhibition of egg hatching (in words) (B. ovis eggs): completely inhibited
% Inhibition (B. ovis eggs; 1 minute exposure): 100%
% Inhibition (B. ovis eggs; 10 minute exposure): 100%
inhibition of egg hatching of Helicoverpa armigera (in words) ([1]; 0.1 mM): no inhibition of egg hatching
inhibition of egg hatching of Helicoverpa armigera (in words) ([1]; 10 and 1 mM): significantly inhibit the egg hatching
inhibition of egg hatching of Helicoverpa armigera (in words) [1, 14]: significantly inhibit egg hatching
% Inhibition of egg hatch relative to control ([1]; Example 14, 0.001 mM): 0%
% Inhibition of egg hatch relative to control ([1]; Example 14, 0.01 mM): 0%
% Inhibition of egg hatch relative to control ([1]; Example 14, 0.1 mM): 0%
% Inhibition of egg hatch relative to control ([1]; Example 14, 1 mM): 97%
Number hatched ([1]; Example 14, 1 mM): 4
Number unhatched ([1]; Example 14, 1 mM): 140
% Inhibition of egg hatch relative to control ([1]; Example 14, 10 mM): 94%
Number hatched ([1]; Example 14, 10 mM): 7
Number unhatched ([1]; Example 14, 10 mM): 98
% Inhibition of egg hatch relative to the control ([1]; Example 15, 0.1 mM): 0%
Number hatched ([1]; Example 15, 0.1 mM): 70
Number unhatched ([1]; Example 15, 0.1 mM): 0
% Inhibition of egg hatch relative to the control ([1]; Example 15, 1 mM): 97%
Number hatched ([1]; Example 15, 1 mM): 2
Number unhatched ([1]; Example 15, 1 mM): 61
% Inhibition of egg hatch relative to the control ([1]; Example 15, 10 mM): 94%
Number hatched ([1]; Example 15, 10 mM): 3
Number unhatched ([1]; Example 15, 10 mM): 48
inhibition of egg hatching of Helicoverpa armigera (in words) ([1]; concentrations below 1 mM): No inhibition
inhibition of egg hatching in Plutella xylostella (in words) ([2]; 0.1 and 0.01 mM): no observable effects on egg hatching
inhibition of egg hatching in Plutella xylostella (in words) [2, 14]: strong ovicidal effects
inhibition of egg hatching in Plutella xylostella (in words) ([2]; 10 and 1 mM, listed as 6,6′-dimethyl-2,2′ dipyridyl): effective at inhibiting egg hatching
% Inhibition of egg hatch relative to control [2, 15]: 0%
Number hatched [2, 15]: 11
Number unhatched [2, 15]: 6
% Inhibition of egg hatch relative to control [2, 16]: 0%
Number hatched [2, 16]: 13
Number unhatched [2, 16]: 7
% Inhibition of egg hatch relative to control [2, 17]: 0%
Number hatched [2, 17]: 23
Number unhatched [2, 17]: 29
% Inhibition of egg hatch relative to control [2, 18]: 100%
Number hatched [2, 18]: 0
Number unhatched [2, 18]: 26
% Inhibition of egg hatch relative to control [2, 19]: 100%
Number hatched [2, 19]: 0
Number unhatched [2, 19]: 79
% Inhibition of egg hatch relative to controls [2, 20]: 12%
Number hatched [2, 20]: 23
Number unhatched [2, 20]: 4
% Inhibition of egg hatch relative to controls [2, 21]: 0%
Number hatched [2, 21]: 49
Number unhatched [2, 21]: 49
% Inhibition of egg hatch relative to controls [2, 5]: 100%
Number hatched [2, 5]: 0
Number unhatched [2, 5]: 23
% Inhibition of egg hatch relative to controls [2, 6]: 100%
Number hatched [2, 6]: 0
Number unhatched [2, 6]: 53
% Inhibition of egg hatch relative to controls [2, 22]: 0%
Number hatched [2, 22]: 92
Number unhatched [2, 22]: 4
% Inhibition of egg hatch relative to controls [2, 23]: 7%
Number hatched [2, 23]: 65
Number unhatched [2, 23]: 70
% Inhibition of egg hatch relative to controls [2, 7]: 100%
Number hatched [2, 7]: 0
Number unhatched [2, 7]: 63
% Inhibition of egg hatch relative to controls [2, 8]: 100%
Number hatched [2, 8]: 0
inhibition of lice egg hatching (in words) (lice eggs; in vivo): completely inhibited
H (number of eggs successfully hatched) (lice eggs; [24]): 0
Ph (number of eggs partly hatched) (lice eggs; [24]): 0
% Inhibition [3, 9]: 3%
Number hatched [3, 9]: 33
Number unhatched [3, 9]: 1
% Inhibition [3, 10]: 0%
Number hatched [3, 10]: 25
Number unhatched [3, 10]: 0
% Inhibition [3, 11]: 38%
Number hatched [3, 11]: 12
Number unhatched [3, 11]: 19
% Inhibition [3, 12]: 90%
Number hatched [3, 12]: 3
Number unhatched [3, 12]: 28
effect of added Fe (FeSO4) on the ovicidal effect (in words) [3]: able to reverse the effects
% Inhibition [3, 13]: 100%
Number hatched [3, 13]: 0
Number unhatched [3, 13]: 44

CC(C)C[C@H](NC(=O)[C@H]1O[C@@H]1C(=O)O)C(=O)NCCCCN=C(N)N [E64]
protease activity of ESW on gelatine SDS-PAGE after inhibitor treatment ([4]; 10 μM inhibitor): No reduction in protease activity

O=S(=O)(F)Cc1ccccc1 [PMSF]
protease activity of ESW on gelatine SDS-PAGE after inhibitor treatment ([4]; 5 mM inhibitor): No reduction in protease activity

CC(C)CC(=O)N[C@H](C(=O)N[C@H](C(=O)N[C@@H](CC(C)C)[C@@H](O)CC(=O)N[C@@H](C)C(=O)N[C@@H](CC(C)C)[C@@H](O)CC(=O)O)C(C)C)C(C)C [pepstatin] (Isovaleryl-VV[Sta]A[Sta]-OH)
protease activity of ESW on gelatine SDS-PAGE after inhibitor treatment ([4]; 5 μM inhibitor, data not shown): did not show any reduction in protease activity; also recorded: No reduction in protease activity
